This is an account of results in patent publication US20080200403A1, “9A-Carbamoyl and Thiocarbamoyl Azalides with Anti-Inflammatory Activity” (GLAXOSMITHKLINE, priority 2005, published 2008).

What all share (format): cell-based
Data set [1] has as its system A549. The data set is described as follows: MTT cytotoxicity assay on A549 cell line. The conditions noted are these: human, 24 h. The method, then:
(§1) To determine whether the anti-inflammatory activity of the test compounds was due to observed inhibition of cytokine production and inhibition of proliferation in vitro, and was not a consequence of cellular cytotoxicity, measurement of succinate dehydrogenase activity in living cells was performed. Cells were cultured for 24 h in RPMI medium as described above at 37° C. in the presence of the test compounds at concentrations of 50 μM and 12.5 μM. MTT [3-(4,5-dimethylthiazole-2-yl)-2,5-diphenyl tetrazolium bromide] (Promega, USA), a detection reagent, was then added and the cultures were incubated for 0.5-2 h. The amount of MTT-Formazan produced was determined using a spectrophotometer at 490 nm (Mosmann, J. Imnunol. Methods, 1983, 65: 55-63). Percentage of viable cells was calculated using the following formula:
(§2) % viable cells=([…]OD490 treated cells/OD490 nontreated cells)×100
(Tetrazolium assays rely on reduction of a dye to a coloured formazan, in cell work by metabolically active cells.)

In data set [2] the test system is IL-8. Briefly: Inhibition of IL-8 production by stimulated human peripheral blood leukocytes in vitro. The note with it: Homo sapiens, Leukocyte, PBL, read-out: Percentage of inhibition of IL-8 production; for inhibition at 10 µM: compound 10 μM; for inhibition at 50 µM: compound 50 μM. A digest of the protocol:
(§3)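 Dextran-isolated human PBL (3-5×10^6 per well) in RPMI with 10% FCS were preincubated 2 h at 37 °C with compounds at 50 μM or 10 μM final, then stimulated overnight with 2 μg/mL LPS, 1 μg/mL PMA or 120 μg/mL zymosan. Supernatant cytokines by sandwich ELISA; % inhibition versus stimulated untreated control.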

Data set [3] has as its system IL-1α. The data set is described as follows: Inhibition of IL-1 production by stimulated human peripheral blood leukocytes in vitro. The note with it: Homo sapiens, Leukocyte, PBL, read-out: Percentage of inhibition of IL-1α production; for inhibition at 10 µM: compound 10 μM; for inhibition at 50 µM: compound 50 μM.
The test system of data set [4] is Hep G2. Briefly: MTT cytotoxicity assay on Hep G2 cell line. The note with it: human, 24 h. Here is the method: as §1, §2
The subject of data set [5] is IL-6. The data set is described as follows: Inhibition of IL-6 production by stimulated human peripheral blood leukocytes in vitro. The conditions noted are these: Homo sapiens, Leukocyte, PBL, read-out: Percentage of inhibition of IL-6 production; for inhibition at 10 µM: compound 10 μM; for inhibition at 50 µM: compound 50 μM. Summed up:
as §3

Data set [6] deals with TNF-α. The data set is described as follows: Inhibition of TNF-α production by stimulated human peripheral blood leukocytes in vitro. The note with it: Homo sapiens, Leukocyte, PBL, read-out: Percentage of inhibition of TNF-α production; for inhibition at 10 µM: compound 10 μM; for inhibition at 50 µM: compound 50 μM. A digest of the protocol: as §3

Where two headings read alike, the source gives them in different places.

`CC[C@H]1OC(=O)[C@H](C)[C@@H](O[C@H]2C[C@@](C)(OC)[C@@H](O)[C@H](C)O2)[C@H](C)[C@@H](O[C@@H]2O[C@H](C)C[C@H](N(C)C)[C@H]2O)[C@](C)(O)C[C@@H](C)CN(C(=O)NC(C)c2cccc3ccccc23)[C@H](C)[C@@H](O)[C@]1(C)O` (stereo partly shown) [Compound 12]: the “Percentage of viable cells after treatment” value in data set [1] (12.5 μM) is given as 94%; in data set [1] (50 μM) it was 72%; in data set [4] (12.5 μM), 93%; in data set [4] (50 μM), 8%. Moreover, the inhibition (usually the percentage by which the read-out fell short of the control) at 10 µM in data set [2] (LPS stimulated) was determined as 15%; in data set [2] (zymosan stimulated), 40%; in data set [3] (LPS stimulated) it was 52%; in data set [3] (zymosan stimulated), 80%; in data set [5] (LPS stimulated) it was 6%; in data set [5] (zymosan stimulated), 88%. Besides, the inhibition at 10 µM in data set [6] (LPS stimulated) came to 28%; in data set [6] (zymosan stimulated) it was 70%. Also, the inhibition at 50 µM in data set [2] (LPS stimulated) was 100%; in data set [2] (zymosan stimulated) it was 100%; in data set [3] (LPS stimulated) it was 82%; in data set [3] (zymosan stimulated), 100%; in data set [5] (LPS stimulated) it was 100%; in data set [5] (zymosan stimulated), 100%. Also, the inhibition at 50 µM in data set [6] (LPS stimulated) and in data set [6] (zymosan stimulated) was 100% in each case.

As to `CC[C@H]1OC(=O)[C@H](C)[C@@H](O[C@H]2C[C@@](C)(OC)[C@@H](O)[C@H](C)O2)[C@H](C)[C@@H](O[C@@H]2O[C@H](C)C[C@H](N(C)C)[C@H]2O)[C@](C)(O)C[C@@H](C)CN(C(=O)Nc2ccc(C(F)(F)F)cc2)[C@H](C)[C@@H](O)[C@]1(C)O` [Compound 9], the “Percentage of viable cells after treatment” value amounted to 100% in data set [1] (12.5 μM), 100% in data set [1] (50 μM), 92% in data set [4] (12.5 μM) and 21% in data set [4] (50 μM). The inhibition at 10 µM in data set [2] (LPS stimulated) was 0%; in data set [2] (zymosan stimulated), 0%; in data set [3] (LPS stimulated) it was 45%; in data set [3] (zymosan stimulated), 65%; in data set [5] (LPS stimulated) it was 0%; in data set [5] (zymosan stimulated), 58%. Besides, the inhibition at 10 µM in data set [6] (LPS stimulated) stood at 23%; in data set [6] (zymosan stimulated) it was 39%. Besides, the inhibition at 50 µM in data set [2] (LPS stimulated) stood at 100%; in data set [2] (zymosan stimulated), 100%; in data set [3] (LPS stimulated), 43%; in data set [3] (zymosan stimulated), 22%; in data set [5] (LPS stimulated), 100%; in data set [5] (zymosan stimulated) it was 100%. The inhibition at 50 µM in data set [6] (LPS stimulated) and in data set [6] (zymosan stimulated) was 100% each time.
